# Experimental data: ChEMBL document CHEMBL4732079, “Design, synthesis and antitumor evaluation of new 1,8-naphthalimide derivatives targeting nuclear DNA” (Eur J Med Chem, 2021)
# pIC50: −log10 of the molar value.
# Assays:
# MGC-803 [1] = experiment: Antiproliferative activity against human MGC-803 cells by MTT assay; type: functional, cell-based
# T-24 = experiment: Antiproliferative activity against human T-24 cells by MTT assay; type: functional, cell-based
# SK-OV-3 = experiment: Antiproliferative activity against human SK-OV-3 cells by MTT assay; type: functional, cell-based
# SMMC-7721 = experiment: Antiproliferative activity against human SMMC-7721 cells by MTT assay; type: functional, cell-based
# A549 = experiment: cells; conditions: Homo sapiens
# Description: Antiproliferative activity against human A549 cells by MTT assay
# MGC-803 [2] = experiment: Antitumor activity against human MGC-803 cells xenografted in BALB/c nude mice assessed as tumor increment rate at 5 mg/kg, ip measured after 21 days relative to control; type: functional; conditions: time 21 day
# MGC-803 [3] = experiment: Antitumor activity against human MGC-803 cells xenografted in BALB/c nude mice assessed as tumor inhibitory rate at 5 mg/kg, ip measured after 21 days relative to control; type: functional; conditions: Mus musculus, MGC-803, ip, 504 h, time 21 day
Compound,pIC50 (MGC-803 [1]),pIC50 (T-24),pIC50 (SK-OV-3),pIC50 (SMMC-7721),pIC50 (A549),T/C (MGC-803 [2]) [%],inhibition in vivo at 5 mg/kg (MGC-803 [3]) [%]
CN(C)CCN1C(=O)c2cccc3c(N4CCN(C(=S)SCc5ccccc5)CC4)c([N+](=O)[O-])cc(c23)C1=O,5.22,5.69,5.62,5.50,5.70,,
CC(C)(C)OC(=O)N1CCN(c2c([N+](=O)[O-])cc3c4c(cccc24)C(=O)N(Cc2ccc(Cl)cc2)C3=O)CC1,4.79,5.02,4.90,5.11,4.39,,
CCCCN1C(=O)c2cccc3c(N4CCN(S(=O)(=O)c5ccc(C)cc5)CC4)c([N+](=O)[O-])cc(c23)C1=O,4.67,4.96,4.47,4.90,4.43,,
CC(C)(C)OC(=O)N1CCN(c2c([N+](=O)[O-])cc3c4c(cccc24)C(=O)N(CCO)C3=O)CC1,4.56,4.89,4.87,4.86,4.34,,
Cc1ccc(S(=O)(=O)N2CCN(c3c([N+](=O)[O-])cc4c5c(cccc35)C(=O)N(CCO)C4=O)CC2)cc1,4.80,5.17,4.91,4.80,4.68,,
CC(C)(C)OC(=O)N1CCN(c2c([N+](=O)[O-])cc3c4c(cccc24)C(=O)N(CCc2ccc(O)c(O)c2)C3=O)CC1,5.06,4.96,5.05,4.56,4.38,,
CN(C)CCN1C(=O)c2cccc3cc([N+](=O)[O-])cc(c23)C1=O [MITONAFIDE],5.17,5.95,5.86,5.49,7.92,,
O=C1c2cccc3c(N4CCN(C(=S)SCc5ccccc5)CC4)c([N+](=O)[O-])cc(c23)C(=O)N1CCc1ccc(O)c(O)c1,4.59,4.97,4.58,4.65,4.76,,
CC(C)(C)OC(=O)N1CCN(c2c([N+](=O)[O-])cc3c4c(cccc24)C(=O)N(CCc2ccc4c(c2)OCO4)C3=O)CC1,4.60,5.01,5.13,4.84,4.78,,
Cc1ccc(S(=O)(=O)N2CCN(c3c([N+](=O)[O-])cc4c5c(cccc35)C(=O)N(Nc3ccccc3)C4=O)CC2)cc1,4.79,4.97,4.63,4.84,4.42,,
CNCCCN1C(=O)c2cccc3c(N4CCN(C(=O)OC(C)(C)C)CC4)c([N+](=O)[O-])cc(c23)C1=O,5.19,5.52,5.06,5.23,5.12,,
O=C(c1ccccc1)N1CCN(c2c([N+](=O)[O-])cc3c4c(cccc24)C(=O)N(Cc2ccc(Cl)cc2)C3=O)CC1,4.70,4.68,4.80,4.89,4.32,,
O=C1c2cccc3c(N4CCN(C(=S)SCc5ccccc5)CC4)c([N+](=O)[O-])cc(c23)C(=O)N1Cc1ccc(Cl)cc1,4.68,4.99,4.53,5.05,4.40,,
O=C1c2cccc3c(N4CCN(C(=S)SCc5ccccc5)CC4)c([N+](=O)[O-])cc(c23)C(=O)N1CCO,4.81,4.88,4.50,4.84,< 4.30,,
Cc1ccc(S(=O)(=O)N2CCN(c3c([N+](=O)[O-])cc4c5c(cccc35)C(=O)N(Cc3ccccc3)C4=O)CC2)cc1,4.97,4.90,4.42,4.83,4.37,,
CN(C)CCN1C(=O)c2cccc3c(N4CCN(C(=O)OC(C)(C)C)CC4)c([N+](=O)[O-])cc(c23)C1=O,5.88,6.08,6.19,5.98,5.97,,

Compound,pIC50 (MGC-803 [1]),pIC50 (T-24),pIC50 (SK-OV-3),pIC50 (SMMC-7721),pIC50 (A549),T/C (MGC-803 [2]) [%],inhibition in vivo at 5 mg/kg (MGC-803 [3]) [%]
CNCCCN1C(=O)c2cccc3c(N4CCN(C(=O)c5ccccc5)CC4)c([N+](=O)[O-])cc(c23)C1=O,5.09,5.33,5.39,5.33,5.18,,
Cc1ccc(S(=O)(=O)N2CCN(c3c([N+](=O)[O-])cc4c5c(cccc35)C(=O)N(CCc3ccc(O)c(O)c3)C4=O)CC2)cc1,4.66,4.94,4.69,4.91,4.61,,
O=C(c1ccccc1)N1CCN(c2c([N+](=O)[O-])cc3c4c(cccc24)C(=O)N(CCO)C3=O)CC1,4.89,5.00,4.77,4.92,4.50,,
Cc1ccc(S(=O)(=O)N2CCN(c3c([N+](=O)[O-])cc4c5c(cccc35)C(=O)N(CCc3ccc5c(c3)OCO5)C4=O)CC2)cc1,4.89,5.04,4.54,4.78,4.38,,
O=C1c2cccc3c(N4CCN(C(=S)SCc5ccccc5)CC4)c([N+](=O)[O-])cc(c23)C(=O)N1Cc1ccccc1,4.66,4.88,4.47,4.87,< 4.30,,
CN(C)CCN1C(=O)c2cccc3cc(N)cc(c23)C1=O [AMONAFIDE],5.04,5.30,5.20,5.16,5.10,34.4,65.5
O=C1c2cccc3c(N4CCN(C(=S)SCc5ccccc5)CC4)c([N+](=O)[O-])cc(c23)C(=O)N1CCc1ccc2c(c1)OCO2,4.68,5.04,4.35,4.89,4.48,,
Cc1ccc(S(=O)(=O)N2CCN(c3c([N+](=O)[O-])cc4c5c(cccc35)C(=O)N(Cc3ccco3)C4=O)CC2)cc1,4.52,5.07,4.53,4.83,4.33,,
O=C1c2cccc3c(N4CCN(C(=S)SCc5ccccc5)CC4)c([N+](=O)[O-])cc(c23)C(=O)N1Nc1ccccc1,4.74,4.87,< 4.30,4.83,< 4.30,,
Cc1ccc(S(=O)(=O)N2CCN(c3c([N+](=O)[O-])cc4c5c(cccc35)C(=O)N(Cc3ccc(Cl)cc3)C4=O)CC2)cc1,4.54,5.20,4.52,4.75,< 4.30,,
COc1ccc(CN2C(=O)c3cccc4c(N5CCN(C(=S)SCc6ccccc6)CC5)c([N+](=O)[O-])cc(c34)C2=O)cc1,4.51,4.97,4.57,4.75,4.41,,
COc1ccc(CN2C(=O)c3cccc4c(N5CCN(S(=O)(=O)c6ccc(C)cc6)CC5)c([N+](=O)[O-])cc(c34)C2=O)cc1,4.79,4.85,4.62,4.52,4.57,,
O=c1[nH]cc(F)c(=O)[nH]1 [FLUOROURACIL],4.46,4.40,,4.81,,,
O=C1c2cccc3c(N4CCN(C(=S)SCc5ccccc5)CC4)c([N+](=O)[O-])cc(c23)C(=O)N1Cc1ccco1,4.67,4.74,4.39,4.93,4.35,,
O=C(c1ccccc1)N1CCN(c2c([N+](=O)[O-])cc3c4c(cccc24)C(=O)N(CCc2ccc(O)c(O)c2)C3=O)CC1,5.03,4.84,4.70,4.71,4.65,,
